Assay results from US20080260876A1, “Garlic Extract Compositions, Uses And Preparations Thereof” (priority 2005, published 2008).

What was measured:
Oidium neolycopersici = experiment: Semi-commercial greenhouse trial, tomato powdery mildew; type: in vivo
Method: Surface-sterilized tomato seeds (cv. Trust) were sown in rock wool cubes and fertilized daily with a standard nutrient solution. Seedlings were grown for 4 wk on a greenhouse bench at 21-24° C. with a 16 h photoperiod and transplanted (at the early flower stage) into rook wool in 13.5 L plastic bags perforated on the upper face in order to insert two rock wool cubes per bag. Plants at the 12-15 leaf stage were inoculated by rubbing a piece of tomato leaf heavily infected by Oidium neolycopersici onto leaf 7. At the onset of the first powdery mildew colonies (after 7-10 days), plants were sprayed with each formulation or with sulphur (the currently applied fungicide in tomato greenhouses) while controls were sprayed with water. The treatments were arranged in a randomized complete block design with 6 plants per treatment and three replications. All treatments with the garlic compositions were repeated once a week.
The treatments included: 1) Dehydrated garlic extracts-chitosan lactate (composition 1); 2) Dehydrated garlic extracts alone (composition 2); 3) chitosan lactate alone (composition 3); 4) sulphur; 5) water; and 6) water+vegetable oil (composition 4).
Disease severity was assessed three and six days after each treatment and evaluated as percentage of leaf area covered by powdery mildew. The assessments were made on a “low” leaf level (about leaf 3), a “middle” leaf level (leaves 6 and 9) and a “high” leaf level (about leaf 12) on three leaves for each level. For each treatment, […] yield was evaluated on 3 plants per replication. Data were analyzed by analysis of variance using the SAS procedure (SAS Inst., Inc., Cary, N.C.). The LSMEANS option was used to generate the probability of difference between all the variables in the study. Single degrees of freedom orthogonal contrasts were used to compare effects of the composition vs. chitosan lactate alone, the composition vs. water or water and oil, and the composition vs. sulphur. It is of note that powdery mildew on tomato is much less aggressive than it is on cucumber.

[1] = test system: Podosphaera xanthii (syn. Sphaerotheca fuliginea); experiment: Foliar spray on powdery mildew-infected cucumber plants; details: for Percentage of reduction of cucumber powdery mildew: Table 5, 1/500 (w/v) in water
Method: Compositions 1 to 4 (Table 1) were applied by foliar spray 7 to 10 days after the inoculation of cucumber plants with powdery mildew spores (infected with 3-4×10^4 spores/mL of Podosphaera xanthii (syn. Sphaerotheca fuliginea)).
Each composition was sprayed once on cucumber leaves and disease assessment was performed after 3, 6, 8 and 12 days. […] For each composition, the assay was repeated three times and the results illustrated in Table 2 represent the average of these three assays.
As previously indicated, some garlic-based compositions are described in U.S. Pat. No. 6,231,865. Particular attention is paid to Samples 1 to 4 disclosed in column 2 of this document.

[2] = 3 plants of tomato, cv. Trust, 14 weeks after harvest

Structure (SMILES)	Average fruit weight, class 1 (Oidium neolycopersici; [2]) [g]	Total fruit yield, class 1 (Oidium neolycopersici; [2]) [Kg/m^2]	Total number of fruits, class 1 (Oidium neolycopersici; [2]) [tomatos/m^2]	Disease incidence after 14 weeks (% of infection) (Oidium neolycopersici; percentage of leaf area covered by powdery mildew, tomato cv. Trust)	Reduction of the incidence of powdery mildew in tomato (disease control) (Oidium neolycopersici; tomato greenhouse trial) [%]	Percentage of reduction of cucumber powdery mildew ([1]; 3 days) [%]	Percentage of reduction of cucumber powdery mildew ([1]; 6 days) [%]	Percentage of reduction of cucumber powdery mildew ([1]; 8 days) [%]	Percentage of reduction of cucumber powdery mildew ([1]; 12 days) [%]	Phytotoxicity on cucumber plants ([1]; days following the application)
S1SSSSSSS1 [Sulphur]	164 ± 3	16.3 ± 1.1	100 ± 5.0	0.28 ± 0.08 % of infection	~100	–	–	–	–	–
CCCCCCCCCCCCOS(=O)(=O)[O-].[Na+] [Sodium dodecyl sulfate]	–	–	–	–	–	100	100	100	95	phytoxicity developed
